# Laboratory results published in patent publication US11447531B2, “Cleavable peptides and insecticidal and nematicidal proteins comprising same” (Vestaron Corporation, priority 2016, dated 2022).
# Test system: gut enzymes of Southern Corn Rootworm
# Assay: FRET peptide cleavage by coleopteran gut enzymes (COLEOP)
# Details: COLEOP (X); pooled FRET screening Round 1; slope of fluorescence over 10 minutes, steepest slope = 100%; representative cleavable sequences
row,Substance,% of Max Slope
1,LRT,68%
2,IKN,100%
3,NIR,74%
4,ALK,70%
5,RIR,83%
6,LRS,68%
7,IKA,56%
8,LRN,100%
9,IRN,100%
10,IRQ,100%
11,QIR,74%
12,LNR,56%
13,LKT,68%
14,IKT,68%
15,LKS,68%
16,LRQ,100%
17,RIK,83%
18,VLK,70%
19,IKV,56%
20,ALR,70%
21,KLK,83%
22,IKQ,100%
23,LQK,56%
24,IQK,56%
25,QIK,74%
26,IRT,68%
27,LNK,56%
28,VIR,70%

# Same assay, conditions: COLEOP (X); pooled FRET screening; failed cleavable sequences
row,Substance,% of Max Slope
1,IKN,0%
2,IRN,0%
3,IRQ,0%
4,IKQ,0%

# Test system: gut enzymes of Corn Earworm
# Assay: FRET peptide cleavage by lepidopteran gut enzymes (LEP)
# Assay type: biochemical, Helicoverpa zea
# Details: LEP (X); pooled FRET screening Round 1; slope of fluorescence over 10 minutes, steepest slope = 100%; representative cleavable sequences
# Source text: Corn Earworm insects were obtained commercially from Benzon Research (Carlisle, Pa.) as eggs. Hatched larvae were raised on artificial diet until ⅘^th instar (20 mm long) before guts were isolated. Before gut extract, larvae were anesthetized using CO2. The larva was then pinned on the dissection plate at both the head and the tail. Using dissection scissors, the cuticle was nicked. The dissection scissors were then inserted into the nick and the […] along the insect. The cuticle was then carefully pulled back and pinned open to reveal the digestive track. Using DI water, the insect was thoroughly rinsed to remove hemolymph. The gut was then excised with tweezers and placed in a solution of 500 μL of 200 mM Tris-HCl pH 8.1 150 mM NaCl (assay buffer). The tube was pre-weighed and post-weighed to calculate the total amount of gut added. CEW gut was diluted to a stock concentration of 7 mg/ml (10×) in 200 mM Tris-HCl pH 8.1 150 mM NaCl. This was diluted fresh each plate by 20× with the assay buffer.
row,Substance,% of Max Slope
1,KRT,93%
2,RKF,92%
3,KRY,92%
4,ARF,93%
5,VRY,93%
6,KSK,90%
7,ISR,89%
8,VKF,93%
9,LSK,89%
10,ARY,93%
11,RSR,90%
12,KKS,93%
13,PKK,100%
14,RSK,90%
15,PKR,100%
16,AKY,93%
17,KTR,90%
18,ITR,89%
19,RRS,93%
20,ART,90%
21,KKF,92%
22,ISK,89%
23,VKT,90%
24,RRT,93%
25,PRR,100%

row,Substance,% of Max Slope
1,RRY,92%
2,RKY,92%
3,VRF,93%
4,RKT,93%
5,LTR,89%
6,VKY,93%
7,AKT,90%
8,RRF,92%
9,VRS,90%
10,KRF,92%
11,ITK,89%
12,VRT,90%
13,RKS,93%
14,VKS,90%
15,KKT,93%
16,AKS,90%
17,RTK,90%
18,KSR,90%
19,KTK,90%
20,ARS,90%
21,PRK,100%
22,KKY,92%
23,KRS,93%
24,AKF,93%
25,RTR,90%

# Same assay, conditions: LEP (X); pooled FRET screening; failed cleavable sequences
row,Substance,% of Max Slope
1,VRY,0%
2,PKK,0%
3,PKR,0%
4,PRR,0%
5,PRK,0%
